Measured values reported in patent US8470889B2 (TRT Pharma Inc., priority 2008, dated 2013).
Like-named read-outs stand apart in the source and are kept apart here. Values belong to the compound of their own block, whether it stands above or below them.

Tests used:
LNCaP cells [1] = test system: LNCaP cells;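 also: MTT formazan absorbance at 600 nm read after 72 h of compound exposure, IC50 fitted by nonlinear regression of dose-response curves, samples run in triplicate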
Method: (§2) MDA PCa 2b was seeded at the same density in medium BRFF-HPC1 (Athena Enzyme Systems, Baltimore, Md., USA) supplemented with 20% FBS. After overnight incubation, the medium was changed to a fresh medium containing different concentrations of test compounds diluted from stock DMSO solution. The final concentration of DMSO is 0.5%. After 72 h of incubation with test compounds, 20 μL of 3-(4,5-dimethyl thiazol-2-yl)-2,5-diphenyltetrazolium bromide (MTT) solution (5 mg/mL in PBS) were added to each well and incubated further for 2 h. Next, the supernatant was aspirated and the MTT formazan formed by metabolically viable cells was dissolved in 100 μL of isopropanol. The plates were mixed for 30 min, and the absorbance was measured at 600 nm on a plate reader (FLUOstar OPTIMA, BMG LabTech). All samples were in triplicate. The IC50 values were determined from dose-response curves by nonlinear regression using PRISM v5.00 (GraphPad Software Inc, La Jolla, Calif., USA).
(§3) The in vitro cytotoxicity of 1-20 were evaluated by MTT assays in a panel of prostate cancer cell lines, including LNCaP, MDA PCa 2b, 22Rv1, C4-2B and PC-3.

MDA PCa 2b cells [2] = test system: MDA PCa 2b cells;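 also: MDA PCa 2b prostate cancer cells in BRFF-HPC1 with 20% FBS, exposed to compounds for 72 h, viable-cell MTT formazan read as absorbance at 600 nm, 0.5% DMSO vehicle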
Method: as §2, §3

22Rv1 cells [3] = test system: 22Rv1 cells
C4-2B cells [4] = test system: C4-2B cells;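 also: cells treated with a dilution series for 72 h, then MTT added and absorbance read at 600 nm, IC50 fitted from dose-response curves by nonlinear regression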
PC-3 cells [5] = test system: PC-3 cells
PC-3 cells [6] = experiment: MTT cell growth inhibition, PC-3
LNCaP cells [7] = experiment: MTT cell growth inhibition, LNCaP;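 also: MTT formazan absorbance at 600 nm read after 72 h of compound exposure, IC50 fitted by nonlinear regression of dose-response curves, samples run in triplicate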
Method: as §2, §3

22Rv1 cells [8] = experiment: MTT cell growth inhibition, 22Rv1; conditions: MTT
C4-2B cells [9] = experiment: MTT cell growth inhibition, C4-2B;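 also: cells treated with a dilution series for 72 h, then MTT added and absorbance read at 600 nm, IC50 fitted from dose-response curves by nonlinear regression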
MDA PCa 2b cells [10] = experiment: MTT cell growth inhibition, MDA PCa 2b; conditions: MTT;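 also: MDA PCa 2b prostate cancer cells in BRFF-HPC1 with 20% FBS, exposed to compounds for 72 h, viable-cell MTT formazan read as absorbance at 600 nm, 0.5% DMSO vehicle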
Method: as §2, §3

MCF-7 cells = experiment: Growth inhibition, MCF-7 breast cancer cells; format: cell-based; conditions: for IC50: Homo sapiens, MCF7, read-out: Cytotoxicity, IC50 (μM) MCF-7
Excerpt: (§1) All samples were in triplicate.

MDA-MB-231 cells = experiment: Growth inhibition, MDA-MB-231 breast cancer cells; format: cell-based; conditions: for IC50: Homo sapiens, MDA-MB-231
Excerpt: as §1

H-1975 cells = experiment: Growth inhibition, H-1975 lung cancer cells; format: cell-based; conditions: for IC50: Homo sapiens, NCI-H1975, read-out: Cytotoxicity, IC50 (μM) H-1975
Excerpt: as §1

[11] = Table 10, read-out: Cytotoxicity, IC50 (μM) MDA-M B231
[12] = read-out: Cellular IC50 (μM) PC-3, Table 2, 72 h, max tested 50 μM (β-ionone 150 μM)
[13] = read-out: Cellular IC50 (μM) LNCaP, Table 2, 72 h
[14] = read-out: Cellular IC50 (μM) PCa 2b, Table 2, 72 h
[15] = read-out: Cellular IC50 (μM) 22Rv1, Table 2, 72 h
[16] = read-out: Cellular IC50 (μM) C4-2B, Table 2, 72 h
[17] = read-out: Cellular IC50 (μM) PC3, Table 8
[18] = read-out: Cellular IC50 (μM) LNCaP, Table 8
[19] = read-out: Cellular IC50 (μM) 22Rv1, Table 8
[20] = read-out: Cellular IC50 (μM) C4-2B, Table 8
[21] = read-out: Cellular IC50 (μM) PCa2b, Table 8
[22] = Table 11, read-out: Cytotoxicity, IC50 (μM) MDA-MB231

SMILES: CC1=CCCC(C)(C)C1/C=C/C(=O)/C=C/c1cccc([N+](=O)[O-])c1 (racemic) [Compound B21]
- IC50 (LNCaP cells [1]): 3.3 µM
- IC50 (MDA PCa 2b cells [2]): 5.9 µM
- IC50 (22Rv1 cells [3]): 4.7 µM
- IC50 (C4-2B cells [4]): 4 µM
- IC50 (PC-3 cells [5]): 2.9 µM

SMILES: CC1=C(/C=C/C(=O)/C=C/c2ccccc2)C(C)(C)CCC1O (racemic) [Compound B23]
- IC50 (LNCaP cells [1]): 5.8 µM
- IC50 (MDA PCa 2b cells [2]): 12.6 µM
- IC50 (22Rv1 cells [3]): 8 µM
- IC50 (C4-2B cells [4]): 1.8 µM
- IC50 (PC-3 cells [5]): 15.5 µM

SMILES: CC1=C(/C=C/C(=O)/C=C/c2ccc(F)c(C(F)(F)F)c2)C(C)(C)CCC1O (racemic) [Compound B32]
- IC50 (LNCaP cells [1]): 2.2 µM
- IC50 (MDA PCa 2b cells [2]): 10 µM
- IC50 (22Rv1 cells [3]): 3.2 µM
- IC50 (C4-2B cells [4]): 7.3 µM
- IC50 (PC-3 cells [5]): 7.3 µM

SMILES: CC(O)(CS(=O)(=O)c1ccc(F)cc1)C(=O)Nc1ccc(C#N)c(C(F)(F)F)c1 (stereo not shown) [Bic, bicalutamide, reference compound]
- Cytotoxicity in prostate cancer cell lines IC50 (μM), PC-3 (PC-3 cells [6]; Part D table, 72 hours, I.A. = Inactive): I.A.
- IC50 (LNCaP cells [7]; read-out: Cytotoxicity in prostate cancer cell lines IC50 (μM), LNCaP, Part D table, 72 hours, I.A. = Inactive): 12.7 µM
- IC50 (22Rv1 cells [8]; read-out: Cytotoxicity in prostate cancer cell lines IC50 (μM), 22Rv1, Part D table, 72 hours): > 50 µM
- IC50 (C4-2B cells [9]; read-out: Cytotoxicity in prostate cancer cell lines IC50 (μM), C4-2B, Part D table, 72 hours, I.A. = Inactive): > 25 µM
- IC50 (MDA PCa 2b cells [10]; read-out: Cytotoxicity in prostate cancer cell lines IC50 (μM), PCa-2b, Part D table, 72 hours): > 50 µM

SMILES: CCn1c2ccccc2c2cc(/C=C/C(O)=C/C(=O)/C=C/C3=C(C)CCCC3(C)C)ccc21 [Compound 9]
- effect in MCF-7 breast cancer cell line (MCF-7 cells): effective
- IC50 (MCF-7 cells; Table 10): 9.3 µM
- effect in MDA-MB-231 breast cancer cell line (MDA-MB-231 cells): effective
- IC50 (MDA-MB-231 cells; [11]): 11.7 µM
- effect in H-1975 lung cancer cell line (H-1975 cells): effective
- IC50 (H-1975 cells; Table 10): 20.9 µM
- IC50 (μM) PC-3 (PC-3 cells [6]; Table 1, 72 h, maximum tested concentration 50 μM): Inactive^c
- IC50 (LNCaP cells [7]; read-out: IC50 (μM) LNCaP, Table 1, 72 h): 9.9 µM
- IC50 (22Rv1 cells [8]; read-out: IC50 (μM) 22Rv1, Table 1, 72 h): 4.1 µM
- IC50 (C4-2B cells [9]; read-out: IC50 (μM) C4-2B, Table 1, 72 h): 7.4 µM

SMILES: CCOc1ccc(C=CC(=O)C(=Cc2ccc(OCC)c(OCC)c2)C(=O)C=CC2=C(C)CCCC2(C)C)cc1OCC [Compound 13]
- IC50 (PC-3 cells [6]; [12]): 14.1 µM
- IC50 (LNCaP cells [7]; [13]): 14.9 µM
- IC50 (MDA PCa 2b cells [10]; [14]): 6.8 µM

SMILES: CC1=C(C=CC(=O)C(=Cc2ccc(O)cc2)C(=O)C=Cc2ccc(O)cc2)C(C)(C)CCC1 [Compound 14]
- IC50 (PC-3 cells [6]; [12]): 6.7 µM
- IC50 (LNCaP cells [7]; [13]): 4.5 µM
- IC50 (22Rv1 cells [8]; [15]): 4.7 µM
- IC50 (C4-2B cells [9]; [16]): 4 µM
- IC50 (MDA PCa 2b cells [10]; [14]): 4.7 µM

SMILES: COc1cc(C=CC(=O)C(=Cc2cc(OC)c(O)c(OC)c2)C(=O)C=CC2=C(C)CCCC2(C)C)cc(OC)c1O [Compound 15]
- IC50 (PC-3 cells [6]; [12]): 12.5 µM
- IC50 (LNCaP cells [7]; [13]): 8.7 µM
- IC50 (22Rv1 cells [8]; [15]): 17.6 µM
- IC50 (C4-2B cells [9]; [16]): 8.5 µM
- IC50 (MDA PCa 2b cells [10]; [14]): 15.3 µM

SMILES: CCn1c2ccccc2c2cc(/C=C(\C(=O)/C=C/C3=C(C)CCCC3(C)C)C(=O)/C=C/c3ccc(O)c(OC)c3)ccc21 [Compound 19]
- IC50 (PC-3 cells [6]; [12]): 7 µM
- IC50 (LNCaP cells [7]; [13]): 2.3 µM
- IC50 (22Rv1 cells [8]; [15]): 2.4 µM
- IC50 (C4-2B cells [9]; [16]): 2.3 µM
- IC50 (MDA PCa 2b cells [10]; [14]): 8.1 µM

SMILES: CC1=CCCC(C)(C)C1/C=C/C(=O)/C=C/c1cccc(C(F)(F)F)c1 (stereo not shown) [Compound B17, (1E,4E)-1-(3-(trifluoromethyl)phenyl)-5-(2,6,6-trimethylcyclohex-2-enyl)penta-1,4-dien-3-one]
- IC50 (LNCaP cells [1]; human, 72 h): 1 µM
- IC50 (MDA PCa 2b cells [2]; human, 72 h): 4.4 µM
- IC50 (22Rv1 cells [3]; human, 72 h): 2.9 µM
- IC50 (C4-2B cells [4]; human, 72 h): 4.4 µM
- IC50 (PC-3 cells [5]; human, 72 h): 5.2 µM

SMILES: CC1=C(/C=C/C(=O)/C=C/c2ccccc2)C(C)(C)CCC1O (stereo not shown) [Compound B44]
- IC50 (PC-3 cells [6]; [17]): 15.5 µM
- IC50 (LNCaP cells [7]; [18]): 5.8 µM
- IC50 (22Rv1 cells [8]; [19]): 8 µM
- IC50 (C4-2B cells [9]; [20]): 1.8 µM
- IC50 (MDA PCa 2b cells [10]; [21]): 12.6 µM

SMILES: CC1=C(/C=C/C(=O)/C=C/c2cccc(C(F)(F)F)c2)C(C)(C)CCC1O (stereo not shown) [Compound B45]
- IC50 (PC-3 cells [6]; [17]): 3.5 µM
- IC50 (LNCaP cells [7]; [18]): 0.74 µM
- IC50 (22Rv1 cells [8]; [19]): 1.7 µM
- IC50 (C4-2B cells [9]; [20]): 1.4 µM
- IC50 (MDA PCa 2b cells [10]; [21]): 2.6 µM

Further lines, with some results ahead:

- IC50 (PC-3 cells [6]; [17]): 32.9 µM
- IC50 (LNCaP cells [7]; [18]): 19.6 µM
- IC50 (22Rv1 cells [8]; [19]): 22.6 µM
SMILES: COc1cc(/C=C/C(=O)/C=C/C2=C(C)C(O)CCC2(C)C)ccc1O (stereo not shown) [Compound B68]
- IC50 (C4-2B cells [9]; [20]): 20.3 µM
- IC50 (MDA PCa 2b cells [10]; [21]): > 25 µM

- IC50 (LNCaP cells [1]; human, 72 h): 17.1 µM
SMILES: CC(=O)N1N=C(/C=C/C2C(C)=CCCC2(C)C)CC1c1ccccc1F (stereo not shown) [Compound C1]
- IC50 (MCF-7 cells; Table 11): 25.3 µM
- IC50 (MDA-MB-231 cells; [22]): 20.4 µM
- IC50 (H-1975 cells; Table 11): 23.7 µM

- IC50 (LNCaP cells [1]; human, 72 h): 16.8 µM
- IC50 (C4-2B cells [4]; human, 72 h): 12.2 µM
- IC50 (PC-3 cells [5]; human, 72 h): 15.9 µM
SMILES: CC(=O)N1N=C(/C=C/C2C(C)=CCCC2(C)C)CC1c1cccc(C(F)(F)F)c1 (stereo not shown) [Compound C2]
- IC50 (MCF-7 cells; Table 11): 23.1 µM
- IC50 (MDA-MB-231 cells; [22]): 14.4 µM
- IC50 (H-1975 cells; Table 11): 14.8 µM

- IC50 (LNCaP cells [1]; human, 72 h): 24.7 µM
- IC50 (C4-2B cells [4]; human, 72 h): 22.1 µM
- IC50 (PC-3 cells [5]; human, 72 h): 25.5 µM
SMILES: COc1ccc(C2CC(/C=C/C3=C(C)C(O)CCC3(C)C)=NN2C(C)=O)cc1OC (stereo not shown) [Compound C3]
- IC50 (MCF-7 cells; Table 11): > 25 µM
- IC50 (MDA-MB-231 cells; [22]): > 25 µM
- IC50 (H-1975 cells; Table 11): > 25 µM

- IC50 (LNCaP cells [1]; human, 72 h): 35.4 µM
- IC50 (C4-2B cells [4]; human, 72 h): 17.8 µM
- IC50 (PC-3 cells [5]; human, 72 h): 47 µM
SMILES: CC(=O)N1N=C(/C=C/C2=C(C)C(O)CCC2(C)C)CC1c1cccc(C(F)(F)F)c1 (stereo not shown) [Compound C4]
- IC50 (MCF-7 cells; Table 11): > 25 µM
- IC50 (MDA-MB-231 cells; [22]): > 25 µM
- IC50 (H-1975 cells; Table 11): > 25 µM

- IC50 (LNCaP cells [1]; human, 72 h): 10.9 µM
- IC50 (C4-2B cells [4]; human, 72 h): 5.7 µM
SMILES: CC1=CCCC(C)(C)C1/C=C/C1=NNC(c2cccc(C(F)(F)F)c2)C1 (stereo not shown) [Compound C5]
- IC50 (MCF-7 cells; Table 11): 17.6 µM
- IC50 (MDA-MB-231 cells; [22]): 15.8 µM
- IC50 (H-1975 cells; Table 11): 19.2 µM

- IC50 (LNCaP cells [1]; human, 72 h): 18.2 µM
- IC50 (C4-2B cells [4]; human, 72 h): 16.6 µM
SMILES: CC(=O)N1N=C(/C=C/C2C(C)=CCCC2(C)C)CC1c1ccccc1C(F)(F)F (stereo not shown) [Compound C6]
- IC50 (MCF-7 cells; Table 11): 18.3 µM
- IC50 (MDA-MB-231 cells; [22]): 15.4 µM
- IC50 (H-1975 cells; Table 11): 18.3 µM

- IC50 (LNCaP cells [1]; human, 72 h): 16.6 µM
- IC50 (C4-2B cells [4]; human, 72 h): 14.4 µM
SMILES: CC(=O)N1N=C(/C=C/C2C(C)=CCCC2(C)C)CC1c1ccc(C(F)(F)F)cc1 (stereo not shown) [Compound C7]
- IC50 (MCF-7 cells; Table 11): 20.8 µM
- IC50 (MDA-MB-231 cells; [22]): 20 µM
- IC50 (H-1975 cells; Table 11): 17.9 µM

- IC50 (PC-3 cells [6]; [12]): 16.8 µM
- IC50 (LNCaP cells [7]; [13]): 8.5 µM
- IC50 (22Rv1 cells [8]; [15]): 18.3 µM
SMILES: COc1cc(/C=C/C(=O)CC(=O)/C=C/c2ccc(O)c(OC)c2)ccc1O [Curcumin, reference compound]
- IC50 (MCF-7 cells; Table 10): 13.6 µM
- IC50 (MDA-MB-231 cells; [11]): 15.7 µM
- IC50 (H-1975 cells; Table 10): > 25 µM
- IC50 (C4-2B cells [9]; [16]): 6.1 µM
